Target: AgrA (Staphylococcus aureus, UniProt P0A0I7)
Assay: cell-based
Parameters: species or system S. aureus USA300 strain UAMS-1625
Conditions: for Ratio IC50 (in presence of HSA)/IC50 (in absence of HSA): 40 mg/mL HSA vs without HSA
[1] = IC50 at 40 mg/mL HSA, LB medium supplemented with 40 mg/mL human serum albumin
[2] = IC50 without HSA, LB medium, without HSA

Chain of AgrA (P0A0I7 whole entry): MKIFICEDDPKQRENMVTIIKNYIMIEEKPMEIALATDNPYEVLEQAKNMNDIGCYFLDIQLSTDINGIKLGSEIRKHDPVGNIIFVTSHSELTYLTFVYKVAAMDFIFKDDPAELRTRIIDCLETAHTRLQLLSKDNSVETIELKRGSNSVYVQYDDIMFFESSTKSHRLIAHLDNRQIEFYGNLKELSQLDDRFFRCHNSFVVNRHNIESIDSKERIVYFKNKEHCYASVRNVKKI

| SMILES | Ratio IC50 (in presence of HSA)/IC50 (in absence of HSA) | IC50 [1] | IC50 [2] |
| --- | --- | --- | --- |
| Cc1ccc(S(=O)(=O)c2nnn3c2[nH]c(=O)c2ccc(N4CCN(CCOCCO)CC4)cc23)c(C)c1 [Compound 45, 3-(2,4-dimethylbenzenesulfonyl)-8-{4-[2-(2-hydroxyethoxy)ethyl]piperazin-1-yl}-4H,5H-[1,2,3]triazolo[1,5-a]quinazolin-5-one] | +++ (ratio ≤ 25) | 19 to 94.9 µM | < 1.9 µM |
| Cc1ccc(S(=O)(=O)c2nnn3c2[nH]c(=O)c2ccc(N4CCCN(CCO)CC4)cc23)c(C)c1 [Compound 46, 3-(2,4-dimethylbenzenesulfonyl)-8-[4-(2-hydroxyethyl)-1,4-diazepan-1-yl]-4H,5H-[1,2,3]triazolo[1,5-a]quinazolin-5-one] | +++ (ratio ≤ 25) | 20.1 to 101 µM | < 2.01 µM |
| Cc1ccc(S(=O)(=O)c2nnn3c2[nH]c(=O)c2ccc(N4CCCNCC4)cc23)c(C)c1 [Compound 47, 8-(1,4-diazepan-1-yl)-3-(2,4-dimethylbenzenesulfonyl)-4H,5H-[1,2,3]triazolo[1,5-a]quinazolin-5-one] | +++ (ratio ≤ 25) | < 22.1 µM | < 2.21 µM |
| Cc1ccc(S(=O)(=O)c2nnn3c2[nH]c(=O)c2ccc(N4CCCOCC4)cc23)c(C)c1 [Compound 48, 3-(2,4-dimethylbenzenesulfonyl)-8-(1,4-oxazepan-4-yl)-4H,5H-[1,2,3]triazolo[1,5-a]quinazolin-5-one] | ++ (ratio ≤ 125) | 22 to 110 µM | < 2.2 µM |
| Cc1ccc(S(=O)(=O)c2nnn3c2[nH]c(=O)c2ccc(N4CCCN(C)CC4)cc23)c(C)c1 [Compound 49, 3-(2,4-dimethylbenzenesulfonyl)-8-(4-methyl-1,4-diazepan-1-yl)-4H,5H-[1,2,3]triazolo[1,5-a]quinazolin-5-one] | +++ (ratio ≤ 25) | 21.4 to 107 µM | 2.14 to 10.7 µM |
| Cc1ccc(S(=O)(=O)c2nnn3c2[nH]c(=O)c2ccc(N4CC5CCC(C4)N5)cc23)c(C)c1 [Compound 50] |  | < 21.5 µM | 2.15 to 10.8 µM |
| Cc1ccc(S(=O)(=O)c2nnn3c2[nH]c(=O)c2ccc(N4CCN(CC(F)(F)F)CC4)cc23)c(C)c1 [Compound 51, 3-(2,4-dimethylbenzenesulfonyl)-8-[4-(2,2,2-trifluoroethyl)piperazin-1-yl]-4H,5H-[1,2,3]triazolo[1,5-a]quinazolin-5-one] | ++ (ratio ≤ 125) | 19.2 to 96.1 µM | < 1.92 µM |
| Cc1ccc(S(=O)(=O)c2nnn3c2[nH]c(=O)c2ccc(N4CCN(C(=O)C(C)C)CC4)cc23)c(C)c1 [Compound 52, 3-(2,4-dimethylbenzenesulfonyl)-8-[4-(2-methylpropanoyl)piperazin-1-yl]-4H,5H-[1,2,3]triazolo[1,5-a]quinazolin-5-one] | +++ (ratio ≤ 25) | 19.7 to 98.3 µM | < 1.97 µM |
| Cc1ccc(S(=O)(=O)c2nnn3c2[nH]c(=O)c2ccc(N4CCN(C)C(=O)C4)cc23)c(C)c1 [Compound 53, 4-[3-(2,4-dimethylbenzenesulfonyl)-5-oxo-4H,5H-[1,2,3]triazolo[1,5-a]quinazolin-8-yl]-1-methylpiperazin-2-one] | ++ (ratio ≤ 125) | 21.4 to 107 µM | < 2.14 µM |
| Cc1ccc(S(=O)(=O)c2nnn3c2[nH]c(=O)c2ccc(N4CCn5ccnc5C4)cc23)c(C)c1 [Compound 54, 3-(2,4-dimethylbenzenesulfonyl)-8-{5H,6H,7H,8H-imidazo[1,2-a]pyrazin-7-yl}-4H,5H-[1,2,3]triazolo[1,5-a]quinazolin-5-one] | ++ (ratio ≤ 125) | 21 to 105 µM | 2.1 to 10.5 µM |

From patent US20250213575A1, “8-HETEROCYCLIC-3-(PHENYLSULFONYL)-[1,2,3]TRIAZOLO[1,5A]QUINAZOLIN-5(4H)-ONE DERIVATIVES AS ANTI-BACTERIALS” (priority 2022, published 2025)
